The numbers were not newly measured in US12247028B2, “Azabicyclo and diazepine derivatives” (Alcon Inc., priority 2017, dated 2025), which cites them from elsewhere.

For this series the following is noted: topical 1% drop; cited from earlier work.

With `CN1[C@@H]2CC[C@H]1C[C@@H](OC(=O)C(CO)c1ccccc1)C2` (some centres unmarked) [atropine], the “efficacy in the treatment of myopia” value was “effective”; the side effects entry was “numerous side effects were reported, including mydriasis (dilation of the pupil) and blurring of near vision due to cycloplegia”.
